{
  "source": "patent US20260345649A1",
  "about": "“PHARMACEUTICAL COMPOSITION FOR DESTRUCTION OF TUMOR BLOOD VESSELS” (SAMSUNG MEDICAL FOUNDATION, priority 2022, published 2026)",
  "key": {"HUVEC": {"system": "HUVEC", "assay": "5-FU cytotoxicity on HUVEC according to D-glucose or L-glucose concentration (MTS)", "type": "cell-based, human", "protocol": "An MTS cell proliferation assay was conducted to evaluate the cytotoxic effect of 5-FU on HUVEC according to D-glucose concentration under different pH conditions.\nThe cells were then incubated for an additional 24 hours in DMEM medium containing various concentrations of glucose.\nTo assess the cytotoxic effect of L-glucose on HUVEC, the experiment was conducted in the same manner as described in Example 2, Section 3.\nTo assess the cytotoxic effect of D-glucose or L-glucose on HUVEC, the experiment was conducted in the same manner as described in Example 2, Section 3."}, "VEGF": {"system": "VEGF", "assay": "VEGF immunohistochemical staining of gastric tumor tissue after local injection of 5-FU in nude mice", "type": "in vivo", "protocol": "To observe changes in vascular tissue within gastric tumor masses after local injection of 5-FU, immunohistochemical staining for CD31 and VEGF was performed.\nFor the control group, gastric tumor tissue was implanted in the dorsal region of nude mice, and when the tumor reached a size of 1 cm×1 cm, it was excised and used. For the 5-FU injection group, 5 mg of 5-FU was injected at the base of the tumor when the implanted tumor reached a size of 1 cm×1 cm. […] The immunohistochemical staining method was as follows.\nTo reduce endogenous peroxidase activity present in blood cells within the tissue, the slides were treated at room temperature with 3% H2O2 in methanol for 15 minutes. […] The slides were washed twice with TBST (Tris-buffered saline with 0.1% Tween® 20 Detergent) for 3 minutes each, followed by incubation at room temperature for 15 minutes with Detection Kit Reagent 1 (HRP Polymer-anti-mouse/rabbit IgG). […] For counterstaining, Harris hematoxylin was applied.\nFor result analysis, the proportion of the area stained for CD31-positive blood vessels and VEGF-positive cancer cells relative to the total tissue area was calculated, and a comparison was made between the control group and the 5-FU locally injected group."}, "HUVECs [1]": {"system": "HUVECs", "assay": "LDH release assay in HUVECs", "type": "cell-based, human", "details": "1 mM, 5 mM, and 10 mM 5-FU, time-dependent, P<0.05, FIG. 4", "protocol": "It has been generally reported that an increase in the expression of thrombospondin-1 (TSP-1) and thrombospondin-2 (TSP-2) induces apoptosis in endothelial cells. To investigate whether the administration of 5-fluorouracil (5-FU) enhances apoptosis in endothelial cells, an LDH release assay was conducted in human umbilical vein endothelial cells (HUVECs). Cytotoxicity was assessed based on the amount of lactate dehydrogenase (LDH) released due to cell membrane damage. The released LDH was quantified using an LDH assay kit (EZ-LDH1000; DoGenBio, Seoul, Korea) according to the manufacturer's protocol.\nHUVECs (5×10^4 cells/well) were seeded in a 96-well polystyrene plate and incubated at 37 °C for 24 hours. LDH substrate was added to each well, followed by an additional incubation at 37 °C for 10 minutes. The plate was centrifuged at 600 g for 5 minutes. A 10-μL aliquot of the supernatant was transferred from the culture plate wells to an analysis plate. Subsequently, 100 μL of LDH reaction mixture reagent was added to the supernatant in each well of the analysis plate. After a 30-minute reaction, absorbance was measured at 450 nm using a microplate reader (Model 680; Bio-Rad). The cytotoxicity of 5-FU on HUVECs was determined based on the amount of LDH released."}, "patients": {"system": "patients", "details": "cited from earlier work"}, "HUVECs [2]": {"system": "HUVECs", "assay": "MTS cell proliferation assay, 5-FU cytotoxicity in HUVECs at different pH", "type": "cell-based, human", "details": "FIG. 5", "protocol": "To evaluate the cytotoxic effect of 5-fluorouracil (5-FU) in human umbilical vein endothelial cells (HUVECs) under different pH conditions, an MTS cell proliferation assay was performed.\nSubsequently, the cells were cultured for an additional 24 hours in Dulbecco's Modified Eagle's Medium (DMEM) containing 5-FU at different pH conditions (pH 6.4, 7.4, 8.4, and 9.0). Following the incubation, the cells were washed twice with phosphate-buffered saline (PBS), after which 100 μL of fresh DMEM growth medium was added, followed by an additional 48-hour incubation. […] After an additional 2-hour incubation, the absorbance was measured at 490 nm using a microplate reader (Model 680, BIO-RAD; Spark, TECAN, CA, USA)."}, "[3]": {"system": "subcutaneous muscle layer", "assay": "Pathological changes in the subcutaneous muscle layer after subcutaneous injection of 5-FU (H&E staining)", "type": "in vivo, nude mice", "design": "key to pathological change score (degeneration, necrosis, inflammation, fibrosis): 0: absent; 1: mild; 2: moderate; 3: severe", "details": "5 mg pH 8.4 5-FU, after 24 hours", "protocol": "To observe pathological changes in the surrounding tissue after injecting 5 mg of pH 8.4 5-FU near the tumor, the drug was locally administered to nude mice. After 24 hours, tissues, including muscle layers, were collected and subjected to H&E staining to examine degeneration, necrosis, inflammation, and fibrosis in the muscle layer. The extent of each pathological change was scored as follows: 0=absent, 1=mild, 2=moderate, 3=severe, and the results are shown in FIG. 10A and FIG. 10b. FIG. 10A presents observations at 40× magnification, while FIG. 10b presents observations at 100× magnification."}, "[4]": {"system": "thrombospondin-1 (TSP-1) in HUVEC", "assay": "TSP-1 protein expression in HUVEC by Western blot", "type": "cell-based, human", "details": "prolonged exposure and higher drug concentrations of 5-FU, FIG. 3", "protocol": "Thrombospondin (TSP) is a macromolecule with various functions, and among its isoforms, TSP-1 acts as an angiogenesis inhibitor. The following experiment was conducted to examine changes in TSP-1 expression in response to different concentrations of 5-FU.\nWestern blot analysis was conducted to confirm the expression of TSP-1 protein in the HUVEC (human umbilical vein endothelial cell) cell line.\nHUVECs cultured in petri dishes were lysed using a buffer containing 50 mM Tris (pH 8.0), 150 mM NaCl, 1% Nonidet P-40, 0.5% sodium deoxycholate (SDC), 0.1% sodium dodecyl sulfate (SDS), and 1× protease inhibitor cocktail. The lysates were incubated on ice for 30 minutes, followed by centrifugation at 14,000 g for 10 minutes to collect the supernatant.\nProtein quantification was performed using a bicinchoninic acid (BCA) protein assay kit (Pierce Chemical, Rockford, IL, USA). A total of 30 μg of protein was subjected to electrophoresis on a 10% SDS-polyacrylamide gel and subsequently transferred onto a nitrocellulose membrane. The membrane was blocked with blocking milk for 1 hour, then incubated with the same TSP-1 antibody used for immunostaining at room temperature for 1 hour. After three washes with Tris buffer containing 0.1% Tween 20 at 15-minute intervals, the membrane was incubated with a secondary antibody specific to the primary antibody at room temperature for 1 hour. […]"}},
  "data": [
    {"smiles": "O=c1[nH]cc(F)c(=O)[nH]1", "note": "[5-FU, 5-fluorouracil]", "values": [
      {"measurement": "cell viability upon addition of 5-FU", "setting": "HUVEC; 5-FU added to L-glucose 5 mM and 25 mM, FIG. 14", "result": "further decreased cell viability"},
      {"measurement": "cell viability upon addition of 5-FU", "setting": "HUVEC; 5-FU under different pH conditions added to D-glucose 5 mM and 25 mM, FIG. 13", "result": "further decrease in cell viability"},
      {"measurement": "Immuno-positive area (%)", "setting": "VEGF; VEGF, proportion of total tissue area, 5 mg 5-FU, one week after injection, control group 0.38", "result": 0.10, "unit": "%"},
      {"measurement": "VEGF secretion levels", "setting": "VEGF; compared to control group", "result": "decreased"},
      {"measurement": "VEGF stained area", "setting": "VEGF; compared to control group, FIG. 7", "result": "appeared smaller"},
      {"measurement": "amount of released LDH", "setting": "HUVECs [1]", "result": "significantly increased"},
      {"measurement": "myelosuppression and gastrointestinal toxicity", "setting": "patients; due to phosphorylation in the gastrointestinal tract, damage to normal cells", "result": "frequent myelosuppression and gastrointestinal toxicity"},
      {"measurement": "adverse effects on intravenous administration", "setting": "patients; intravenous", "result": "associated with adverse effects such as thrombosis"},
      {"measurement": "incidence of severe and potentially life-threatening cardiotoxicity", "setting": "patients; reported cases", "result": "1.5% to 18"},
      {"measurement": "cytotoxicity under alkaline conditions compared to neutral or acidic 5-FU", "setting": "HUVECs [2]", "result": "significantly greater toxicity"},
      {"measurement": "cytotoxic effect according to pH", "setting": "HUVECs [2]; pH 6.4, 7.4, 8.4, and 9.0, 24 hours", "result": "increased as the alkalinity of the drug became stronger"},
      {"measurement": "pathological change score (degeneration, necrosis, inflammation, fibrosis)", "setting": "[3]", "result": 0},
      {"measurement": "pathological changes in the subcutaneous muscle layer at the injection site", "setting": "[3]", "result": "no pathological changes were observed"},
      {"measurement": "TSP-1 expression levels", "setting": "[4]", "result": "increased expression levels"}
    ]}
  ]
}
